Data reported in patent US7767671B2, “3-Quinolinecarbonitrile protein kinase inhibitors” (Wyeth, priority 2004, dated 2010).

Test system: LoVo
Test: Cell based screen for inhibitors of Raf and/or Mek kinase (SRB), LoVo
Set-up: species or system human
Settings: Homo sapiens, 96 h, LoVo cells, four days incubation, (a)/(b)/(c) = average of two/three/five runs
Procedure: Cell Based Screen for Inhibitors of Raf and/or Mek Kinase. Materials
Cell Lines: Human adenocarcinoma cell line LoVo, known to be growth inhibited by low nM concentrations of a reference standard inhibitor of Ras and human adenocarcinoma cell line CaCo-2, known to be growth resistant to the same reference compound.
Cell Media: RPMI 1640 with 10% Fetal Bovine Serum supplemented with L-glutamine and Penicillin/Streptomycin.
Cells are plated at 2000 cells per well for cell line LoVo and 1500 cells for cell line CaCo-2 in 96 well plates. Cells are plated in media (200 μl) and allowed to adhere overnight at 37° C. At 24 hours post plating, compounds are added directly at a volume of 0.5 μl. For the qualitative screen (compounds screened at 25 μM) compound is added directly to cells. For the quantitative screen, compound is first diluted in DMSO to generate concentrations of compound or reference standard of: 1, 5, 10 and 25 μM. It is advisable to make the dilutions in an identical 96 well plate so that compounds can be added using a multichannel micropipettor set at 0.5 μl. The cells are then incubated for four days after which the media is removed using a 12 well manifold by first tipping the plate forward at a 45 degree angle and then inserting the manifold in an upright orientation to prevent the tips of the manifold from disturbing cells at the bottom of the plate. 200 μl of normal saline is then added to each well using an 8 well multichannel pipettor, followed by the careful addition of 50 μl of 50% TCA. The plates are then incubated for 2 hours at 4° C., after which the supernatant is removed using the same technique as above and the plated cells are washed twice with 200 μl water. The plates are then air dried and 50 μl of SRB stock solution is carefully added so that the entire bottom of each well is covered. This again can be done using an 8 well multichannel pipettor. The SRB is incubated with fixed cells for 15 minutes at room temperature after which the SRB is removed with the manifold as described above and the plates washed twice with 350 μl of 1% acetic acid per well each time. The plates are then air dried after which the bound SRB is released from protein by the addition of 200 μl of Tris base. Resolubilizing the SRB is aided by placing the plates on a rotator for 15-30 minutes. The absorbance of each well is determined at 550 or 562 nm using a microtiter plate reader.
Each compound or dilution thereof is performed in triplicate. Outliers are identified by visual inspection of the data. Each plate should have a “0” control (vehicle only).
Quantitative Assay: A standard curve is constructed by plotting the concentration of compound against the average absorbance calculated at that concentration. A curve is plotted and the concentration at which the curve passes through the 50% the absorbance mark seen in the “0” control well is the IC50 calculated for that compound. Multiple entries for a given compound indicate that it is tested multiple times.

- IC50: 900 nM
Compound: COc1cc2c(Nc3ccc(Oc4ccccc4)cc3)c(C#N)cnc2cc1OCCN1CCC(N2CCCCC2)CC1 [Example 32, 7-(2-[1,4′]Bipiperidinyl-1′-yl-ethoxy)-6-methoxy-4-(4-phenoxy-phenylamino)-quinoline-3-carbonitrile]
